The record followed here is article PMC7921015, “Spatiotemporal GLP-1 and GIP receptor signaling and trafficking/recycling dynamics induced by selected receptor mono- and dual-agonists” (Molecular Metabolism, 2021).

The target of test [1] is T1, human GLP-1R (Homo sapiens, UniProt P43220).
T1 construct: host or cells: HEK293T
The test can be described thus: cAMP assay (CAMYEL BRET sensor), GLP-1R. The class given is cell-based. Here is the method: (§1) The cells were seeded (700,000 cells/well) in 6-well plates and incubated to ∼70% confluency in complete media supplemented with 10% FBS and 1% Pen-Strep. […] Baseline measurements were taken after 5 min of incubation with coelenterazine-h or NanoGlo. The cells were then treated with a vehicle or the respective agonists. […] The temporal data of the vehicle-corrected agonist measurement was then normalized to the baseline reading of the same well. The first BRET reading following treatment with agonist/vehicle was the subsequent measurement after the zero time point. Positive or negative incremental areas under the curves (+iAUC/-iAUC) were calculated where noted. Each experiment was independently performed at least three times, with at least two technical replicates for each group.
(§2) CAMYEL, a cAMP sensor using YFP-Epac-RLuc was utilized to quantify cAMP accumulation with the temporal resolution. Then, 500 ng of CAMYEL DNA was co-transfected with 500 ng of DNA of untagged GLP-1R or GIPR per well in a 6-well plate. The experiments were performed in the absence of 3-isobutyl-1-methylxanthine (IBMX).
(§3) Data are represented as means ± S.E.M. Each experiment was independently conducted at least three times, each with at least two technical replicates. […] Dose responses were fitted using non-linear regression. pEC50 and EC50 values were calculated using GraphPad Prism 8.0 (GraphPad, San Diego, CA, USA). Statistical analyses were calculated in GraphPad 8.0 using one-way analysis of variance (ANOVA) and corrected with Tukey's or Bonferroni's multiple comparison test. Differences are considered significant with an adjusted p value < 0.05.
(Cyclic AMP is a second messenger, typically raised through Gs and lowered through Gi signalling.)

The target in test [2] is T1, human GLP-1R. The test can be described thus: Gαq (mini-G) recruitment BRET assay, GLP-1R. The class given is cell-based. The note with it: HEK-293T, HEK293T, GLP-1R-GFP + NLuc-mini-G, +iAUC 60 min, mean ± SEM, at least 3 experiments. A general note: Bioluminescence resonance energy transfer reports proximity on the nanometre scale.
Test [3] concerns the target T1, human GLP-1R. Put plainly: GPCR internalization assay (loss of BRET with Venus-KRAS), GLP-1R. The class given is cell-based. The note with it: HEK-293T, HEK293T, hGLP-1R-Rluc8 + Venus-KRAS, iAUC 60 min, mean ± SEM, at least 3 experiments, SEM, read-out: Receptor Internalization Emax (% GLP-1).
The target of test [4] is T1, human GLP-1R. Put plainly: Gαs (mini-G) recruitment BRET assay, GLP-1R. The class given is cell-based. The note with it: HEK-293T, HEK293T, GLP-1R-GFP + NLuc-mini-G, +iAUC 60 min, mean ± SEM, at least 3 experiments.
In test [5] the target is T2, human GIPR (Homo sapiens, UniProt P48546).
T2 sequence (P48546 22-466): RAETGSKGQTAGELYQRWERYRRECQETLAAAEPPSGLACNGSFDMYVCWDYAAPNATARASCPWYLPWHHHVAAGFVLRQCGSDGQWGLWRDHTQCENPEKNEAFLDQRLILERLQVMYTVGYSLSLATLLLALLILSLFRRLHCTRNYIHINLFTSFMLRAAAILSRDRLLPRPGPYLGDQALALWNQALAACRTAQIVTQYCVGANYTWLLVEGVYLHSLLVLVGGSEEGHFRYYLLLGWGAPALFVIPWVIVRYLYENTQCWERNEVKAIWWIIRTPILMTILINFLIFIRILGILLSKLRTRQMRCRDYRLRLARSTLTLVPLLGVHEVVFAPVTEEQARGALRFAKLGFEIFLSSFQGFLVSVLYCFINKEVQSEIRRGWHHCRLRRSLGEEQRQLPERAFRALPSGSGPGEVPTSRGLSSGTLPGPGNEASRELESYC
The test can be described thus: cAMP assay (CAMYEL BRET sensor), GIPR. The class given is cell-based. The protocol:
as §1, §2, §3

In test [6] the target is T2, human GIPR. The test can be described thus: Gαq (mini-G) recruitment BRET assay, GIPR. Particulars: HEK293T, GIPR-GFP + NLuc-mini-G, +iAUC 60 min. It counts as cell-based.
Test [7] concerns the target T2, human GIPR. Put plainly: GPCR internalization assay (loss of BRET with Venus-KRAS), GIPR. The class given is cell-based. Particulars: HEK293T, hGIPR-Rluc8 + Venus-KRAS, iAUC 20 min, mean ± SEM, SEM.
Test [8] has as its target T2, human GIPR. Put plainly: β-arrestin 1 recruitment BRET assay, GIPR. It counts as cell-based. The protocol: as §1
(§4) Co-localization of β-arrestin1/2-RLUC8 with GLP-1R-GFP or GIPR-GFP was assessed.
as §3

In test [9] the target is T2, human GIPR. The test can be described thus: β-arrestin 2 recruitment BRET assay, GIPR. It counts as cell-based. Particulars: HEK293T, GIPR-GFP + β-arrestin2-RLUC8, BRET, +iAUC 30 min. Here is the method: as §1, §4, §3
Background: Recruitment of arrestin is a read-out of receptor activation apart from second messengers.

The target in test [10] is T2, human GIPR. Put plainly: Gαs (mini-G) recruitment BRET assay, GIPR. Particulars: HEK293T, GIPR-GFP + NLuc-mini-G, +iAUC 60 min. It counts as cell-based.
Test [11] addresses T1, human GLP-1R. Put plainly: Endosomal trafficking assay (Venus-Rab5/7/11 co-localization), GLP-1R, HEK293T. The class given is cell-based. The note with it: six experiments. Here is the method: GPCR endosomal trafficking was assessed by measuring the ligand-stimulated gain in resonance energy transfer between Venus-Rab5/7/11 and hGLP-1R-RLUC8 or hGIPR-RLUC. Then, 100 ng of the respective Venus-Rab subtype DNA and 100 ng of hGLP-1R-RLUC8 or hGIPR-RLUC8 DNA were co-transfected into each well in a 6-well plate.

Test [12] concerns the target Human GLP-1R-GFP (human) (UniProt P43220).
For test [13] the target is unchanged. This is another data set of the same source.

Human GLP-1R-GFP (human), sequence (P43220 24-463): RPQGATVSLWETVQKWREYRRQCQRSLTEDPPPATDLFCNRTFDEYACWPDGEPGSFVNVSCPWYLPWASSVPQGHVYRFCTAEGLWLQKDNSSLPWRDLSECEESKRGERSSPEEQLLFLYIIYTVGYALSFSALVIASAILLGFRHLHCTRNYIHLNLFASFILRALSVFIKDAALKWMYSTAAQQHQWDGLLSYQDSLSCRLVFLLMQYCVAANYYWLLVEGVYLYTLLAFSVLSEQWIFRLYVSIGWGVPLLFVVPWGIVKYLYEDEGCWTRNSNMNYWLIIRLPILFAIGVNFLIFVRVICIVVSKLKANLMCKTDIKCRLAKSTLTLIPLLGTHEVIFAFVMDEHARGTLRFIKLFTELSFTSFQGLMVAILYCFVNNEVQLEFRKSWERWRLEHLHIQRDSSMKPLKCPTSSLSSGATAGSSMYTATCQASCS
T1 sequence (P43220 24-463): as above

A word on the Emax: it is the size of the effect at its maximum, as opposed to the concentration needed. As to `CC[C@H](C)[C@H](NC(=O)[C@H](CC(C)C)NC(=O)[C@H](Cc1c[nH]c2ccccc12)NC(=O)[C@H](CCC(N)=O)NC(=O)[C@@H](NC(=O)[C@H](Cc1ccccc1)NC(=O)[C@H](C)NC(=O)[C@H](CCCCNC(=O)COCCOCCNC(=O)COCCOCCNC(=O)CC[C@H](NC(=O)CCCCCCCCCCCCCCCCCCC(=O)O)C(=O)O)NC(=O)[C@H](CCC(N)=O)NC(=O)[C@H](C)NC(=O)[C@@H](NC(=O)[C@H](CCCCN)NC(=O)[C@H](CC(=O)O)NC(=O)[C@H](CC(C)C)NC(=O)C(C)(C)NC(=O)[C@@H](NC(=O)[C@H](CO)NC(=O)[C@H](Cc1ccc(O)cc1)NC(=O)[C@H](CC(=O)O)NC(=O)[C@H](CO)NC(=O)[C@@H](NC(=O)[C@H](Cc1ccccc1)NC(=O)[C@@H](NC(=O)CNC(=O)[C@H](CCC(=O)O)NC(=O)C(C)(C)NC(=O)[C@@H](N)Cc1ccc(O)cc1)[C@@H](C)O)[C@@H](C)O)[C@@H](C)CC)[C@@H](C)CC)C(C)C)C(=O)N[C@@H](C)C(=O)NCC(=O)NCC(=O)N1CCC[C@H]1C(=O)N[C@@H](CO)C(=O)N[C@@H](CO)C(=O)NCC(=O)N[C@@H](C)C(=O)N1CCC[C@H]1C(=O)N1CCC[C@H]1C(=O)N1CCC[C@H]1C(=O)N[C@@H](CO)C(N)=O` [tirzepatide, reference compound], the Emax at human GLP-1R [1] (HEK-293T, HEK293T transiently expressing untagged GLP-1R, CAMYEL sensor, no IBMX, +iAUC of 25 min response, 3-parameter fit, mean ± SEM, at least 3 experiments, SEM) was found to be 102 ± 4%; on human GLP-1R [2] it was 17%; on human GLP-1R [3] it was 24 ± 4%; at human GLP-1R [4] it was 31%; at human GIPR [6] (HEK-293T, mean ± SEM, at least 3 experiments, read-out: Gαq Recruitment Emax (% GIP)), 85%; at human GIPR [7] (HEK-293T, at least 3 experiments, read-out: Receptor Internalization Emax (% GIP)) it was 18 ± 1%. The Emax on human GIPR [10] (HEK-293T, mean ± SEM, at least 3 experiments, SEM, read-out: Gαs Recruitment Emax (% GIP)) amounted to 43 ± 3%. In addition, the EC50 on human GIPR [5] (HEK293T, GIPR, CAMYEL sensor, no IBMX, +iAUC 25 min, read-out: cAMP EC50) was 13.3 nM; at human GIPR [6] (mean ± SEM, SEM, read-out: Gαq Recruitment pEC50 (converted)) it was 132 nM; at human GIPR [6] (read-out: Gαq Recruitment EC50), 164 nM; on human GIPR [7] (read-out: Receptor Internalization pEC50 (converted)), 4.68 nM; on human GIPR [8] (HEK293T, GIPR-GFP + β-arrestin1-RLUC8, BRET, +iAUC 30 min; read-out: β-arr1 Recruitment EC50), more than 1000 nM; on human GIPR [8] (HEK293T, GIPR-GFP + β-arrestin1-RLUC8, BRET, +iAUC 30 min; read-out: β-arr1 Recruitment pEC50 (converted)), more than 1000 nM. Besides, the EC50 was 39.8 nM at human GIPR [9] (mean ± SEM, SEM, read-out: β-arr2 Recruitment pEC50 (converted)) and 324 nM at human GIPR [10] (read-out: Gαs Recruitment EC50). Moreover, the “Gαq Recruitment Emax (% GIP)” value at human GIPR [6] (mean ± SEM, at least 3 experiments, listed as Dual Agonist (Tirzepatide), SEM) was 71 ± 1 [-29]*^# % GIP. Moreover, the “total GLP-1R Rab5 co-localization, of that elicited by GLP-1 (7–36 amide)” value on human GLP-1R [11] (1 μM stimulation, hGLP-1R-Rluc8 + Venus-Rab5 (early endosomes), +iAUC) came out at 13%. In addition, the “co-localization of GLP-1R with Rab7 positive (late) endosomes, of the response of GLP-1 (7–36 amide)” value on human GLP-1R [11] (hGLP-1R-Rluc8 + Venus-Rab7, +iAUC) is given as 24%. Besides, the “GLP-1R co-localization with Rab11-positive recycling endosomes, decrease vs GLP-1 (7–36 amide)” value at human GLP-1R [11] (hGLP-1R-Rluc8 + Venus-Rab11, +iAUC) stood at 54%.
As to `CCCCCCCCCCCCCCCC(=O)NCCCC[C@H](NC(=O)[C@H](CO)NC(=O)[C@@H]1CCCN1C(=O)[C@@H]1CCCN1C(=O)[C@@H]1CCCN1C(=O)[C@H](C)NC(=O)CNC(=O)[C@H](CO)NC(=O)[C@H](CO)NC(=O)[C@@H]1CCCN1C(=O)CNC(=O)CNC(=O)[C@H](C)NC(=O)[C@H](CC(C)C)NC(=O)[C@H](CC(C)C)NC(=O)[C@H](Cc1c[nH]c2ccccc12)NC(=O)[C@H](CC(N)=O)NC(=O)[C@@H](NC(=O)[C@H](Cc1ccccc1)NC(=O)[C@H](CCC(=O)O)NC(=O)C(C)(C)NC(=O)[C@H](C)NC(=O)[C@H](C)NC(=O)[C@H](CCC(N)=O)NC(=O)[C@H](CCCCN)NC(=O)[C@H](CC(=O)O)NC(=O)[C@H](CC(C)C)NC(=O)[C@H](Cc1ccc(O)cc1)NC(=O)[C@@H](NC(=O)[C@H](CO)NC(=O)[C@H](Cc1ccc(O)cc1)NC(=O)[C@H](CC(=O)O)NC(=O)[C@H](CO)NC(=O)[C@@H](NC(=O)[C@H](Cc1ccccc1)NC(=O)[C@@H](NC(=O)CNC(=O)[C@H](CCC(=O)O)NC(=O)C(C)(C)NC(=O)[C@@H](N)Cc1ccc(O)cc1)[C@@H](C)O)[C@@H](C)CC)[C@@H](C)CC)C(C)C)C(N)=O` [fatty acyl-GIP], the EC50 is 181 nM at human GLP-1R [1]; 1.34 nM on human GIPR [5]; more than 1000 nM at human GIPR [8] (read-out: β-arr1 Recruitment EC50; HEK293T, GIPR-GFP + β-arrestin1-RLUC8, BRET, +iAUC 30 min); more than 1000 nM on human GIPR [9] (read-out: β-arr2 Recruitment EC50). Further, on human GIPR [5] (HEK-293T, HEK293T transiently expressing untagged GIPR, CAMYEL sensor, no IBMX, +iAUC of 25 min response, 3-parameter fit, mean ± SEM, at least 3 experiments, SEM, read-out: cAMP Emax (% GIP)), the Emax was found to be 97 ± 2%.
As to Tirzepatide (peptide), the GLP-1R internalization Emax, % of GLP-1 (7–36 amide) (loss of BRET between hGLP-1R-Rluc8 and Venus-KRAS, HEK293T) with Human GLP-1R-GFP (human) [12] stood at 13%. Further, in the test with Human GLP-1R-GFP (human) [13], the GLP-1R co-localization with Rab5 early endosomes (BRET of hGLP-1R-Rluc8 with Venus-Rab5, HEK293T), 1 μM, % of GLP-1 (7–36 amide) turned out to be 13%; the GLP-1R co-localization with Rab7 late endosomes (BRET of hGLP-1R-Rluc8 with Venus-Rab7, HEK293T), % of GLP-1 (7–36 amide) was 24%; the GLP-1R co-localization with Rab11 recycling endosomes (BRET of hGLP-1R-Rluc8 with Venus-Rab11, HEK293T), decrease against GLP-1 (7–36 amide) came to 54%.
